Measured values as given in PMC6437697 (Journal of Medicinal Chemistry, 2019).

Assays:
Assay in all cases: KINOMEscan
Type in all cases: binding
Conditions in all cases: read-out: % control activity remaining
[1] = target: T1, ABL1(T315I)-phosphorylated (Homo sapiens, UniProt P00519, T315I)
T1 construct: purchased Eurofins DiscoverX KINOMEscan

[2] = target: T2, RSK3(Kin.Dom.1-N-terminal) (Homo sapiens, UniProt Q15349)
T2 construct: RSK3(Kin.Dom.1-N-terminal); purchased Eurofins DiscoverX KINOMEscan
T2 sequence (Q15349 59-318 limits assumed): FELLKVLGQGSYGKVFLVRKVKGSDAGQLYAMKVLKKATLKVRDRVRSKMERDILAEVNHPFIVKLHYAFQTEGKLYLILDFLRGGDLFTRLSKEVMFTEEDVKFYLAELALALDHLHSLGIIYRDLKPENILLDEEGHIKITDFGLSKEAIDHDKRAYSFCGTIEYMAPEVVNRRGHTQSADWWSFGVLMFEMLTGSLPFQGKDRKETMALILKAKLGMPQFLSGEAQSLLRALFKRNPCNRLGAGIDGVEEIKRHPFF

[3] = target: T3, ABL1(Y253F)-phosphorylated (Homo sapiens, UniProt P00519, Y253F)
T3 construct: purchased Eurofins DiscoverX KINOMEscan

[4] = target: T4, AMPK-alpha2 (Homo sapiens, UniProt P54646)
T4 construct: purchased Eurofins DiscoverX KINOMEscan
T4 sequence (P54646 whole entry): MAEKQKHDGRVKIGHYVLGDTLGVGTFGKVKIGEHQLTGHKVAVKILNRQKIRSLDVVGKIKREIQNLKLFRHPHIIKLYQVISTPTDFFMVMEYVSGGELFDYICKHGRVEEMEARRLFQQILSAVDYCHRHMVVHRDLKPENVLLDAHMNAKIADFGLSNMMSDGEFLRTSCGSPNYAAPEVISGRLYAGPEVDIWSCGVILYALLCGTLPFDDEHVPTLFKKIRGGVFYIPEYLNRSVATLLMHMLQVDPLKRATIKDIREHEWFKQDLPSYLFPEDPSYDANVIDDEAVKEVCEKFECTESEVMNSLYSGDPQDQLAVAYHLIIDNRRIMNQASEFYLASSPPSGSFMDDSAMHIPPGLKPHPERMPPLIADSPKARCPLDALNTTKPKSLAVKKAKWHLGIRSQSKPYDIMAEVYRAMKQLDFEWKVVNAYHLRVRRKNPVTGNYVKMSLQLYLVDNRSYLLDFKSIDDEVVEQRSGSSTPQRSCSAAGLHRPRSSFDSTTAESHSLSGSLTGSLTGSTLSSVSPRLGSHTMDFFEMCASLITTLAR

[5] = target: T5, EGFR(T790M) (Homo sapiens, UniProt P00533, T790M)
T5 construct: purchased Eurofins DiscoverX KINOMEscan
T5 sequence (P00533 25-1210 T790M limits assumed): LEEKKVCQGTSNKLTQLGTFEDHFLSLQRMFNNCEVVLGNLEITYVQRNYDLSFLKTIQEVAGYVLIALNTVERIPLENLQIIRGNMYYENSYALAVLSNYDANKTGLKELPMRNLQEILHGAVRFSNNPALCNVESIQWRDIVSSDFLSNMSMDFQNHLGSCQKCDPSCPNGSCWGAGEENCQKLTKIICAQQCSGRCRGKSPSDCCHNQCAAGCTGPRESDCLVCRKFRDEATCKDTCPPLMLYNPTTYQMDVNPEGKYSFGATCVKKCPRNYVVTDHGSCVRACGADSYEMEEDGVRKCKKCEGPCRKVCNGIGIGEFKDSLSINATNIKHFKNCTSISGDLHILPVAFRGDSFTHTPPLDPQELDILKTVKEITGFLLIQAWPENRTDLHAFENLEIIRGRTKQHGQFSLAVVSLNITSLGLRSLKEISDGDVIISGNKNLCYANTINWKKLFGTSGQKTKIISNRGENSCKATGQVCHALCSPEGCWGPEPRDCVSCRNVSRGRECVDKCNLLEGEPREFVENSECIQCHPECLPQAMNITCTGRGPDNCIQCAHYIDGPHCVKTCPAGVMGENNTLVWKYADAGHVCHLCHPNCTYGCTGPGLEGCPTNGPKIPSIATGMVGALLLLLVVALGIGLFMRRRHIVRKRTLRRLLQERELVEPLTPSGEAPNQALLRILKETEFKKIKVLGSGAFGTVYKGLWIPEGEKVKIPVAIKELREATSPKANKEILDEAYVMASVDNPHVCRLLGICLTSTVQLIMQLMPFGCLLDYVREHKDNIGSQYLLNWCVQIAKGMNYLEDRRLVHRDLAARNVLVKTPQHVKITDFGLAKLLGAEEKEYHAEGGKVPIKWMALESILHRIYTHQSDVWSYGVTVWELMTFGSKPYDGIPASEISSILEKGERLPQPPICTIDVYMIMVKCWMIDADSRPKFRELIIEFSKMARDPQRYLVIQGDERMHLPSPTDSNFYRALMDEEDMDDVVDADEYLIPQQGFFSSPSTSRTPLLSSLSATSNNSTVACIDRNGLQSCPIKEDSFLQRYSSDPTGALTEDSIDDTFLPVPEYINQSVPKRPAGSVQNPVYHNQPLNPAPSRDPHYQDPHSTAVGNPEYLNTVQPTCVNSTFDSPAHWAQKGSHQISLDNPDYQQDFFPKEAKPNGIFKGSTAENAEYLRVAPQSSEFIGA

[6] = target: T6, JAK2(JH1domain-catalytic) (Homo sapiens, UniProt O60674)
T6 construct: JAK2(JH1domain-catalytic); purchased Eurofins DiscoverX KINOMEscan
T6 sequence (O60674 849-1132 limits assumed): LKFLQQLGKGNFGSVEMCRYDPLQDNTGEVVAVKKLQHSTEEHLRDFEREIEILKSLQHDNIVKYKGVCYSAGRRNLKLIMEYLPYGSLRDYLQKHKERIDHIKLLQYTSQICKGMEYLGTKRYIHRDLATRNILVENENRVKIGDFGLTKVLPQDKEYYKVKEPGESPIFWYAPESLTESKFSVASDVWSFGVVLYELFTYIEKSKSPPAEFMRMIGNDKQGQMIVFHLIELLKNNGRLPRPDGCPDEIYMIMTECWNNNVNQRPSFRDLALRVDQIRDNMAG

[7] = target: T7, IKK-epsilon (Homo sapiens, UniProt Q14164)
T7 construct: purchased Eurofins DiscoverX KINOMEscan
T7 sequence (Q14164 1-716): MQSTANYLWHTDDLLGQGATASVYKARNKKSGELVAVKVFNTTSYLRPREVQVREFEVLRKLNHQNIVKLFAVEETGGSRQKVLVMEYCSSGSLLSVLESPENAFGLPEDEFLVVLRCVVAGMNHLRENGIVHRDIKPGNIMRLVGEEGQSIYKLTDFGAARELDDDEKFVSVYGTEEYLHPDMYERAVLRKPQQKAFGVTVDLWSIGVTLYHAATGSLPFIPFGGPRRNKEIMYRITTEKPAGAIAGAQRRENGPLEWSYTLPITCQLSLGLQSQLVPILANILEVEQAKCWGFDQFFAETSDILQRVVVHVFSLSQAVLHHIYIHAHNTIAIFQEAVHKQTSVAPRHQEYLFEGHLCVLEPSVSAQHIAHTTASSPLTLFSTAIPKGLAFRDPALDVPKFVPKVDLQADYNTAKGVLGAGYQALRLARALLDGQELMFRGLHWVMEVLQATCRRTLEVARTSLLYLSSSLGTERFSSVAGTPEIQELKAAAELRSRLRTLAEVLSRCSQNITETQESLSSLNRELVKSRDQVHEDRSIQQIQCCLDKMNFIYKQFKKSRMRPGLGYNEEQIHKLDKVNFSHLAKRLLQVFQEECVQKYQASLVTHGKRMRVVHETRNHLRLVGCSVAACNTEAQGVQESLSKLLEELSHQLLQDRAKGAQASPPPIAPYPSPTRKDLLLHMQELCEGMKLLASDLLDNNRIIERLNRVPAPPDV

[8] = target: T8, TRKC (Homo sapiens, UniProt Q16288)
T8 construct: purchased Eurofins DiscoverX KINOMEscan
T8 sequence (Q16288 32-839): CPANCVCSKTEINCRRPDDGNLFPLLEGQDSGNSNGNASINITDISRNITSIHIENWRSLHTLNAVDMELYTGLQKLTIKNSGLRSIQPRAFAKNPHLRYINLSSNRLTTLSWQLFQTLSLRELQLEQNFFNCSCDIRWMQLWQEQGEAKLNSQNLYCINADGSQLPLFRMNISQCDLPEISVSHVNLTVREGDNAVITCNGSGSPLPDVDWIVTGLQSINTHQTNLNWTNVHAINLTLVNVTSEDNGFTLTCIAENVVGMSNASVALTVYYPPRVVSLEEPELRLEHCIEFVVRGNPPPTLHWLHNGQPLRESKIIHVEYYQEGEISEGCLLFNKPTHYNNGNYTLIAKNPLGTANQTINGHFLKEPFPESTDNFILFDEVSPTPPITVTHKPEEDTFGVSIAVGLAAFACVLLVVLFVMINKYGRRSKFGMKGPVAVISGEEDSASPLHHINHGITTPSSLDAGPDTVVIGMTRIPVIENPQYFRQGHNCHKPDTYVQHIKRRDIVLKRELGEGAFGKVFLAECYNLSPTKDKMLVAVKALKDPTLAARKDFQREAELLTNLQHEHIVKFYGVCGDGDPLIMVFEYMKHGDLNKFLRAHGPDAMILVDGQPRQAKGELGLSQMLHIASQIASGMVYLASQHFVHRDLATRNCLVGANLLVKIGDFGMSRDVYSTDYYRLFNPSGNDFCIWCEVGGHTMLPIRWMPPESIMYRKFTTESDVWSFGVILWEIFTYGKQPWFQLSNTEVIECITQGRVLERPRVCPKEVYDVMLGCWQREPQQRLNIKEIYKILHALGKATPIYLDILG

[9] = target: T9, PIP5K2B (Homo sapiens, UniProt P78356)
T9 construct: purchased Eurofins DiscoverX KINOMEscan
T9 sequence (P78356 1-416): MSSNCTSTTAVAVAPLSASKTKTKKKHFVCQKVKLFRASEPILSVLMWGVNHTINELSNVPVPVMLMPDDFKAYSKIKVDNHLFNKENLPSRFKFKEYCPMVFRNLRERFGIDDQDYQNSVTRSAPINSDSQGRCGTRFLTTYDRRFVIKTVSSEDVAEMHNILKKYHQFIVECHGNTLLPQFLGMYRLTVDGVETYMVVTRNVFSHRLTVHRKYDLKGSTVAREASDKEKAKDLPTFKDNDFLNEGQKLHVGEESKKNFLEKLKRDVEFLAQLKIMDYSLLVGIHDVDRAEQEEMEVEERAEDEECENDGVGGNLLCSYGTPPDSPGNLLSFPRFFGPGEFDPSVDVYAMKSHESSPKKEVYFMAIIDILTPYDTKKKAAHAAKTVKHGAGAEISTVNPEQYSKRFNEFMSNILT

[10] = target: T10, BLK (Homo sapiens, UniProt P51451)
T10 construct: purchased Eurofins DiscoverX KINOMEscan
T10 sequence (P51451 whole entry): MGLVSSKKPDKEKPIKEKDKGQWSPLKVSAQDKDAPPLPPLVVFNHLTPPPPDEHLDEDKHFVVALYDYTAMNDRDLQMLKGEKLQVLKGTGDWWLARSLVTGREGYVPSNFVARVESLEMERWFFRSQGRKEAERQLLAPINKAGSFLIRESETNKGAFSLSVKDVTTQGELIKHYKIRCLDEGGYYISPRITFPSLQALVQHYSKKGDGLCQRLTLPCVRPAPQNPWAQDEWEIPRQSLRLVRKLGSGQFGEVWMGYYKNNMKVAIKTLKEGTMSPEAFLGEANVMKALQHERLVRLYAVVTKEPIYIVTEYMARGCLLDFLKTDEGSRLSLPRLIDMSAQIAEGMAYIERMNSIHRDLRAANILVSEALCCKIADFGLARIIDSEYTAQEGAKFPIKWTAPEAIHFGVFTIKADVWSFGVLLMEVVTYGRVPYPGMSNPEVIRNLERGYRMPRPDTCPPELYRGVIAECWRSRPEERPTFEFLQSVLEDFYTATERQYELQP

[11] = target: T11, PRKG1 (Homo sapiens, UniProt Q13976)
T11 construct: purchased Eurofins DiscoverX KINOMEscan
T11 sequence (Q13976 1-671): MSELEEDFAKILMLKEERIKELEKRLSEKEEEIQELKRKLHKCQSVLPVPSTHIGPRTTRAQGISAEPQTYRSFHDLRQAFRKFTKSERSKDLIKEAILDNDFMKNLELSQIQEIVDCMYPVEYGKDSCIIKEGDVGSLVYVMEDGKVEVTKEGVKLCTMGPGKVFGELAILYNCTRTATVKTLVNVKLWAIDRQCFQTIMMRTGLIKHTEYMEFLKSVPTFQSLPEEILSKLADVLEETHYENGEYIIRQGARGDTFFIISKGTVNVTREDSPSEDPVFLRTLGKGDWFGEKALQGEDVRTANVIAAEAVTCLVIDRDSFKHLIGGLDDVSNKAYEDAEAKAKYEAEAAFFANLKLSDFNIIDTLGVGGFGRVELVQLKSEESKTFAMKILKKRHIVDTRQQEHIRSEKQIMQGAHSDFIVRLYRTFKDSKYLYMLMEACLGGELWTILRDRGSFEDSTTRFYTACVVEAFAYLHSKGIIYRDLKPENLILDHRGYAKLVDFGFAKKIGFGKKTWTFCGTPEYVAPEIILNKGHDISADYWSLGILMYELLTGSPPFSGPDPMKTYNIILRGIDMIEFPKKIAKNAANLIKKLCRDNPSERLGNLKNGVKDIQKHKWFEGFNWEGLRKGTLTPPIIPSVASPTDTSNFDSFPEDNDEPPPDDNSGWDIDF

[12] = target: T12, PLK2 (Homo sapiens, UniProt Q9NYY3)
T12 construct: purchased Eurofins DiscoverX KINOMEscan
T12 sequence (Q9NYY3 whole entry): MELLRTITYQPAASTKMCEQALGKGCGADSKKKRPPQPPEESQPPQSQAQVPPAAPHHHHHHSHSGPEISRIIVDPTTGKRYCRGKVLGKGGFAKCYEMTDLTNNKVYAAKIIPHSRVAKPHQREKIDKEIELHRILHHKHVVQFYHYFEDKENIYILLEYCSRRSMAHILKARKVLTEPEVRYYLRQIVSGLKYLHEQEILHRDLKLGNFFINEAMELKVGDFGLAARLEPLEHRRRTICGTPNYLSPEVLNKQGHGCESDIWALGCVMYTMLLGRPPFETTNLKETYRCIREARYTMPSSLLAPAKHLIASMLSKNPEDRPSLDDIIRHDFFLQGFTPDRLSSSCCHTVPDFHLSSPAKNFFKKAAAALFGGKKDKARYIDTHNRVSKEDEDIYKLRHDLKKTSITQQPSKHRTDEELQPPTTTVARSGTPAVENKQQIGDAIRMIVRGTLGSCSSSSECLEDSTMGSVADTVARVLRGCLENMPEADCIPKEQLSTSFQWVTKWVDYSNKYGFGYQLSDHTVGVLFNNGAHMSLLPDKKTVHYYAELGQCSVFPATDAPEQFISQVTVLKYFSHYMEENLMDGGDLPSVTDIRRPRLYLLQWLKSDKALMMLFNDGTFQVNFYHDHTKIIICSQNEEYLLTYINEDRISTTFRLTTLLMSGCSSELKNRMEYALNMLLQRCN

[13] = target: T13, MST4 (Homo sapiens, UniProt Q9P289)
T13 construct: purchased Eurofins DiscoverX KINOMEscan
T13 sequence (Q9P289 whole entry): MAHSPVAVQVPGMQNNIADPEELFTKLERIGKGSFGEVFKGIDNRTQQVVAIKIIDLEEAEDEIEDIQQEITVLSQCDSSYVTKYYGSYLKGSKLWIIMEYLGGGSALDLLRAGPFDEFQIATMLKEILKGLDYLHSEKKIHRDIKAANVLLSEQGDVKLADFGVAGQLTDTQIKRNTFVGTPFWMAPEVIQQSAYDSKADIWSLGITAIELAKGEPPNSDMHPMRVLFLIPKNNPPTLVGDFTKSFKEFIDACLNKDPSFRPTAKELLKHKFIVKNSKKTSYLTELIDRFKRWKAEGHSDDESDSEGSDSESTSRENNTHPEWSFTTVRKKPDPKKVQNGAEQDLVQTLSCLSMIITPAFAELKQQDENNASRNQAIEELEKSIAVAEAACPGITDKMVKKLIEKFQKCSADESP

[14] = target: T14, JAK1(JH1domain-catalytic) (Homo sapiens, UniProt P23458)
T14 construct: JAK1(JH1domain-catalytic); purchased Eurofins DiscoverX KINOMEscan
T14 sequence (P23458 875-1154 limits assumed): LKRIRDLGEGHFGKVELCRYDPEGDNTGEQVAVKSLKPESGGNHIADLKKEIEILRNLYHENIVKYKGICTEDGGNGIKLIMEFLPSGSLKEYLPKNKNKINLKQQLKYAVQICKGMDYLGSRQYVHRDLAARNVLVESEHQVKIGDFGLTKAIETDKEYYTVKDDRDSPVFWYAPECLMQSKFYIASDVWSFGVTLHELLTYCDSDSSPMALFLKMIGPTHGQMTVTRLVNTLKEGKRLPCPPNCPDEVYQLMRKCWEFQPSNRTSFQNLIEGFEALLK

| SMILES | remaining binding at 1 µM [1] [%] | remaining binding at 1 µM [2] [%] | remaining binding at 1 µM [3] [%] | remaining binding at 1 µM [4] [%] | remaining binding at 1 µM [5] [%] | remaining binding at 1 µM [6] [%] | remaining binding at 1 µM [7] [%] | remaining binding at 1 µM [8] [%] | remaining binding at 1 µM [9] [%] | remaining binding at 1 µM [10] [%] | remaining binding at 1 µM [11] [%] | remaining binding at 1 µM [12] [%] | remaining binding at 1 µM [13] [%] | remaining binding at 1 µM [14] [%] |
| --- | --- | --- | --- | --- | --- | --- | --- | --- | --- | --- | --- | --- | --- | --- |
| Clc1cc(NCC2CC2)c2ncc(-c3ccc4[nH]ncc4c3)n2n1 [compound 2, 6-Chloro-N-(cyclopropylmethyl)-3-(1H-indazol-5-yl)imidazo[1,2-b]pyridazin-8-amine] | 94 | 82 | 71 | 94 | 92 | 91 | 94 | 87 | 78 | 53 | 84 | 66 | 88 | 100 |
| O=C(CN1CCOCC1)N[C@H]1CC[C@H](Nc2cc(Cl)nn3c(-c4ccc5[nH]ncc5c4)cnc23)CC1 [compound 26] | 50 | 52 | 55 | 92 | 100 | 99 | 100 | 100 | 87 | 95 | 32 | 100 | 84 | 100 |
| CN1CCC(CNc2cc(Cl)nn3c(-c4cc5nc(Nc6ccccc6)[nH]c5cc4F)cnc23)CC1 [compound 31, 6-Chloro-3-(6-fluoro-2-(phenylamino)-1H-benzo[d]imidazol-5-yl)-N-((1-methylpiperidin-4-yl)methyl)imidazo[1,2-b]pyridazin-8-amine] | 87 | 78 | 75 | 99 | 100 | 100 | 78 | 100 | 81 | 79 | 83 | 90 | 100 | 100 |
